In the assay the test system is M. tuberculosis H37Rv growth inhibition, 7H9 media. Briefly: M. tuberculosis growth inhibition, HTS (AID 449762).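 As to all read-outs here: bacterial growth assessed after seven days of incubation.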 The conditions noted are these: for IC90: measured here: IC90 growth inhibition.

The structures appear in SMILES notation. Results filed as inconclusive are left out.

For orientation: IC50 means the concentration that inhibits the measured activity by half. For orientation: IC90 means the concentration needed for an effect of 90%. Higher therefore signals weaker potency. For `CN(C)C/C=C/C(=O)Nc1cccc(-c2c[nH]c3ncnc(Oc4ccc(NC(=O)CC(=O)Nc5ccc(F)cc5)cc4F)c23)c1`, the IC50 is 7.38 µM and the IC90 is 14.7 µM.

Turning to `O=C(Nc1cc(N2CCOCC2)ncn1)NC1(C(F)(F)F)Oc2ccc(Cl)cc2O1` (stereo not drawn), the IC50 was 11.8 µM and the concentration for an effect of 90% (IC90) was found to be 18.9 µM.

As for `CCCCCC(O)c1cccc(OCc2ccc3ccccc3n2)c1` (stereo not drawn), the 50% inhibitory concentration (IC50) was 44.7 µM and the IC90 amounted to 50.5 µM.

Consider `Cc1ccc(-n2[nH]c(C)c(C=Nc3ccc(S(=O)(=O)Nc4nccs4)cc3)c2=O)c(C)c1`, for which the 50% inhibitory concentration (IC50) is 5.73 µM and the IC90 was determined as 17 µM.

With `N#Cc1c([N+](=O)[O-])cc([N+](=O)[O-])cc1S(=O)(=O)Cc1ccccc1`, the IC50 is 15.3 µM and the IC90 worked out at 22.6 µM.

Take `CCc1ccc(C2=NN(c3ccc(S(N)(=O)=O)cc3)C(c3ccc(F)cc3)C2)cc1` (stereo not drawn): the IC50 was 36.2 µM and the IC90 worked out at 48.7 µM.

Turning to `CSC(=S)NCc1cccnc1`, the IC50 was 11.5 µM and the concentration for an effect of 90% (IC90) stood at 34.7 µM.

On to `O=C1Nc2ccccc2/C1=N\N=C\C1=C(N2CCOCC2)C(=C\c2ccccc2)/CC1`, for which the half-inhibitory concentration (IC50) was 33.4 µM and the IC90 was found to be 59.8 µM.

Turning to `CCOC(=O)C1=C(C)NC(SCC(=O)Nc2nc(C)cs2)=C(C#N)C1c1cccs1` (stereo not drawn), the half-maximal inhibitory concentration (IC50) was 34.4 µM and the 90% effect concentration (IC90) is 48.7 µM.

In the case of `CCO[C@H]1OC(C(=O)NCc2nc3ccccc3[nH]2)=C[C@@H](c2csc3ccccc23)[C@@H]1CCCO`, the 50% inhibitory concentration (IC50) is 44.8 µM and the concentration for an effect of 90% (IC90) was determined as 50.5 µM.

Regarding `O=[N+]([O-])/C=C/c1cn(Cc2ccccc2)c2ccccc12`, the half-inhibitory concentration (IC50) is 82.9 µM and the IC90 was over 100 µM.

In the case of `Cc1onc(-c2c(F)cccc2Cl)c1C(=O)O/N=C(\N)c1ccc([N+](=O)[O-])o1`, the IC50 is 5.3 µM and the 90% effect concentration (IC90) was 11 µM.

Turning to `CC(C)(C)C(=O)/C(=C\c1cccc([N+](=O)[O-])c1)n1cncn1`, the IC50 was 1.51 µM and the IC90 came to 1.72 µM.

For `CC1CCCC(NC(=O)NC(=O)CCl)C1C` (stereo not drawn), the concentration for half-maximal inhibition (IC50) is 3.25 µM and the IC90 came out at 7.38 µM.

Consider `C(=C\c1nccc2c1[nH]c1ccccc12)/c1ccccc1`, for which the IC50 is 28.5 µM and the concentration for an effect of 90% (IC90) worked out at 48.2 µM.

Take `COc1ccc(C(CCN2CCCCC2)c2c(OC)cc(OC)c3c(-c4ccccc4)cc(=O)oc23)cc1` (stereo not drawn): the concentration for half-maximal inhibition (IC50) is 15.1 µM and the IC90 came to 22.4 µM.

Consider `COc1ccc2c3n(nc2c1)CCN=C3c1cc(Cl)c(N)c(Cl)c1`, for which the 50% inhibitory concentration (IC50) is 12.8 µM and the IC90 is 31.9 µM.

Turning to `COC(=O)c1cccc(C#CC(NP(=O)(c2ccccc2)c2ccccc2)c2ccccc2)c1` (stereo not drawn), the 90% effect concentration (IC90) was over 100 µM.

`O=S1(=O)N(CCN2CC=C(c3c[nH]c4cc(F)ccc34)CC2)c2cccc3c2N1CCC3`: the half-maximal inhibitory concentration (IC50) is 11.1 µM and the concentration for an effect of 90% (IC90) worked out at 11.7 µM.

`C=CC[n+]1ccn(-c2nc3ccccc3nc2[N-]S(=O)(=O)c2cccs2)c1`: the IC50 is 25 µM and the IC90 was found to be 28.1 µM.

As for `CN(CC(=O)Nc1ccccc1Br)C(=O)c1cccnc1Nc1cccc(C(F)(F)F)c1`, the concentration for half-maximal inhibition (IC50) was 32 µM and the IC90 was 40.7 µM.

On to `C=CCOc1ccc(C2C(C#N)=C(N)N(Nc3ccccc3)C3=C2C(=O)CC(C)(C)C3)cc1OC` (stereo not drawn), for which the IC50 was 30.1 µM and the IC90 came out at 68.2 µM.

Regarding `CCN(CC)c1ccc2nc3ccccc3[n+](CC)c2c1`, the IC50 was 2.71 µM and the concentration for an effect of 90% (IC90) came out at 5.66 µM.

Turning to `O=C(OCc1nc2ccccc2s1)c1ccc(Br)o1`, the IC50 is 18.9 µM and the concentration for an effect of 90% (IC90) was over 100 µM.

Regarding `CCc1ccc(NCc2ccc(OC)c(Cn3ccnc3)c2)cc1`, the IC50 was 21.5 µM and the 90% effect concentration (IC90) was 23.9 µM.

For the compound `CSC1=NC(C)(C)C=C(/C=C/c2ccc(Cl)cc2)N1`, the half-inhibitory concentration (IC50) is 21.5 µM and the IC90 amounted to 44.5 µM.

Consider `CCOC(=O)c1c(C)n(-c2ccc(C)cc2)c2ccc(OCC(O)CNCC3CCCO3)cc12` (stereo not drawn), for which the IC50 was 22.7 µM and the IC90 was determined as 31 µM.

Consider `CC[N+](C)(CC)CCCCOc1ccc2c(c1)C(=O)c1cc(OCCCC[N+](C)(CC)CC)ccc1-2`, for which the IC50 was 0.96 µM and the 90% effect concentration (IC90) was determined as 1.52 µM.

For the compound `O=C(Nc1nc2nc(-c3ccccc3)cc(=O)n2[nH]1)c1ccccc1`, the IC50 was 17.8 µM and the IC90 was over 100 µM.

As for `CCOc1ccc(/C=N/Nc2ccc(Cl)nn2)c(O)c1`, the IC50 is 4.49 µM and the IC90 turned out to be 7.48 µM.

Regarding `CCC(C)N1CCC2(CC1)N=c1c(c3c4c5c(C)c(O)c3c(O)c1=NC(=O)C(C)=CC=C[C@H](C)[C@H](O)[C@@H](C)[C@@H](O)[C@@H](C)[C@H](OC(C)=O)[C@H](C)[C@@H](OC)C=CO[C@@](C)(O5)C4=O)N2` (stereo partly drawn), the IC50 is under 0.2 µM and the IC90 is under 0.2 µM.

For the compound `CN1C2CCC1/C(=C/c1ccccn1)C(=O)/C2=C\c1ccccn1`, the IC50 was 16.4 µM and the concentration for an effect of 90% (IC90) turned out to be 25.8 µM.

In the case of `CCN(CC)CCNC(=O)c1ccc(NC(=O)c2cn(-c3ccccc3)nc2-c2cccs2)cc1`, the half-inhibitory concentration (IC50) was 19 µM and the concentration for an effect of 90% (IC90) stood at 27.1 µM.

As to `Cc1ccc(C(=O)N/C(=C/c2ccco2)C(=O)OCN2C(=O)c3ccccc3C2=O)cc1`, the concentration for half-maximal inhibition (IC50) is 6.83 µM and the IC90 was found to be 49.9 µM.

As for `NC(=O)c1ccc(N=Cc2ccc([N+](=O)[O-])s2)cc1`, the 50% inhibitory concentration (IC50) is 12.6 µM and the IC90 worked out at 13.6 µM.

Regarding `CCc1nnc(NS(=O)(=O)c2ccc(N/C=C\C(=O)c3cccc(OC)c3)cc2)s1`, the IC50 was 16.2 µM and the IC90 was 35.5 µM.

With `CCOC(=O)c1nn(-c2ccc(C)cc2)c2nc(Nc3ccccc3)cc(=O)n12`, the IC50 is 4.1 µM and the IC90 was 12.7 µM.

On to `COC(OC)c1ccnc(-c2ccc(OC(=O)c3cccs3)cc2)n1`, for which the 50% inhibitory concentration (IC50) was 62.4 µM and the IC90 is over 100 µM.

As to `CCc1cccc2c(=O)c(C(=O)N3CCOCC3)c[nH]c12`, the IC50 was 6.62 µM and the IC90 was 14.2 µM.

With `CS/C(Nc1cc(Cl)ccc1Cl)=C(/C#N)C(=O)c1ccco1`, the half-maximal inhibitory concentration (IC50) is 3.6 µM and the concentration for an effect of 90% (IC90) was 40.2 µM.

With `CCOc1cccc(/C=C/c2ccc3cccc(O)c3n2)c1O`, the 50% inhibitory concentration (IC50) was 1.38 µM and the 90% effect concentration (IC90) was determined as 18.5 µM.

`Cc1cc(C)cc(NC(=O)CCc2ccc(C)o2)c1`: the half-maximal inhibitory concentration (IC50) is 43 µM and the IC90 was over 100 µM.

As for `CCc1ccc(NC(=O)CSc2nc3n[nH]c(C)c3c(=N)n2-c2cccc(OC)c2)cc1`, the 50% inhibitory concentration (IC50) is 13.2 µM and the concentration for an effect of 90% (IC90) is 37.1 µM.

Regarding `Cc1ccc(-c2noc(=O)n2CC(=O)c2ccc(Cl)cc2)cc1`, the IC50 is 44.3 µM and the IC90 was over 100 µM.

For the compound `O=C(CSC(=S)N1CCCC1)c1cc(Br)cc(Br)c1O`, the half-maximal inhibitory concentration (IC50) was 23.9 µM and the IC90 was determined as 36.6 µM.

Take `COc1ccccc1N(O)C1CC(=O)N(c2ccc(Br)cc2)C1=O` (stereo not drawn): the IC50 was 16.8 µM and the 90% effect concentration (IC90) is 32.3 µM.

On to `CCOc1cc(-c2c(C#N)c(=O)[nH]c3c2c(C)nn3-c2ccc(F)cc2)ccc1O`, for which the IC50 is 1.21 µM and the IC90 was 4.98 µM.

For `CCCCCCc1cc2cc(C(=O)NCc3ccccc3)c(=N)oc2cc1O`, the concentration for half-maximal inhibition (IC50) was 3.45 µM and the concentration for an effect of 90% (IC90) was found to be 5.73 µM.

For the compound `Cc1c(NC(=O)c2ccc([N+](=O)[O-])o2)cccc1-c1nc2ncccc2o1`, the concentration for half-maximal inhibition (IC50) was 8.36 µM and the IC90 was over 25 µM.

On to `CCCOP(=O)(OCCC)c1c([N+](=O)[O-])cc(C(F)(F)F)cc1[N+](=O)[O-]`, for which the concentration for half-maximal inhibition (IC50) was 3.88 µM and the IC90 turned out to be 6.52 µM.

Consider `O=C(/C=C\c1cccs1)N1CCN(Cc2ccc3c(c2)OCO3)CC1`, for which the IC50 is 1.48 µM and the IC90 came out at 5.53 µM.

Regarding `CCn1cc([N+](=O)[O-])c(C(=O)N2N=C(c3ccc4ccccc4c3)CC2c2ccccc2O)n1` (stereo not drawn), the half-inhibitory concentration (IC50) was 49.6 µM and the IC90 is over 100 µM.

Consider `CCOC(=O)c1ccc(-c2c(-c3ccc4c(c3)OCO4)noc2C)cc1F`, for which the IC50 was 33.3 µM and the 90% effect concentration (IC90) was determined as 54 µM.

As to `OC(CN1CCCCC1)Cn1c2ccc(Cl)cc2c2cc(Cl)ccc21` (stereo not drawn), the 50% inhibitory concentration (IC50) was 8.94 µM and the IC90 turned out to be 11.6 µM.

Regarding `Cc1ccc(NN=C2c3ccccc3-c3ccccc32)cc1`, the IC50 was 45.5 µM and the IC90 was over 100 µM.

In the case of `Cc1ccc(-c2nc3ccsc3c(=O)o2)cc1`, the IC50 is 0.61 µM and the 90% effect concentration (IC90) is over 100 µM.

For `Cc1cc(C2N=C(N)Nc3nc4ccccc4n32)c(C)n1-c1ccccc1Cl` (stereo not drawn), the concentration for half-maximal inhibition (IC50) is 12.1 µM and the 90% effect concentration (IC90) came out at 16.6 µM.

Consider `CC[C@@H](C)[C@H](CN[C@H](CNC)C(C)C)NC[C@@H](C)c1ccc(CC(C)C)cc1`, for which the IC50 is 11.3 µM and the concentration for an effect of 90% (IC90) was 12.6 µM.

`CCOc1ccc(-c2nn3c(-c4ccccc4)nnc3s2)cc1`: the half-inhibitory concentration (IC50) was 29.2 µM and the IC90 was over 100 µM.

`Nc1ccc2cc(Br)ccc2c1`: the 50% inhibitory concentration (IC50) was 51.8 µM and the concentration for an effect of 90% (IC90) was found to be 84.9 µM.

As for `CCOC(=O)c1ccc2c(c1)C(=O)N(C1CCCCC1)C2=O`, the IC50 is 98.3 µM and the concentration for an effect of 90% (IC90) was over 100 µM.

Turning to `COc1ccc(CNc2ncnc3c2[nH]c2cc(OC)c(OC)cc23)cc1`, the 50% inhibitory concentration (IC50) was 5.2 µM and the IC90 was found to be 14.9 µM.

Regarding `NNc1nc2ccc(Cl)cc2s1`, the IC50 was 42.5 µM and the 90% effect concentration (IC90) came out at 46.6 µM.

Take `CCCc1cc2c(cc1NC(=O)c1ccccc1Cl)OCO2`: the IC50 is 1.98 µM and the 90% effect concentration (IC90) is over 100 µM.

On to `Cc1ccccc1N1CCN(C(=O)c2ccc(Oc3ccc(C(F)(F)F)cn3)cc2)CC1`, for which the IC50 is 24.4 µM and the 90% effect concentration (IC90) stood at 60.5 µM.

On to `CC1CCC(C(C)C)C(OC(=O)Cn2c(-c3ccc(F)cc3)[n+](C)c3ccccc32)C1` (stereo not drawn), for which the IC50 is 9.08 µM and the concentration for an effect of 90% (IC90) amounted to 13 µM.

On to `OCCCNc1cc(-c2ccnc(Nc3cccc(Cl)c3)n2)ccn1`, for which the IC50 was 20.8 µM and the IC90 came to 45 µM.

Regarding `COc1cc2c(C(=O)N3CCN(c4cccc(Cl)c4)CC3)cn(CC(C)C)c(=O)c2cc1OC`, the 50% inhibitory concentration (IC50) is 47.7 µM and the 90% effect concentration (IC90) was determined as 53.9 µM.

As for `O=C(OCn1ncc(Br)c(Br)c1=O)c1ccc(F)cc1`, the half-inhibitory concentration (IC50) was 1.17 µM and the IC90 was found to be 3.58 µM.

Take `O=C(c1cc2cc(Cl)ccc2[nH]1)N1CCN(Cc2ccc3c(c2)OCO3)CC1`: the IC90 is over 100 µM.

Values taken from PubChem BioAssay AID449762 (Southern Research Specialized Biocontainment Screening …, 2010).
